Laboratory results taken from patent US20170368082A1, “FORMULATIONS OF BRINCIDOFOVIR” (priority 2016, published 2017).

Assay: Tissue distribution by quantitative whole-body autoradiography (QWBA)
Type: in vivo, male Sprague Dawley and Long-Evans rats
Settings: for Cmax Ratio (PO/IV) / AUCall Ratio (PO/IV): 15 mg/kg, Group 7 vs Group 4
Experimental: The study utilized 4 groups of male SD rats (albino), and 3 groups of male LE rats (pigmented); a total of 39 rats. All animals were obtained from Hilltop Lab Animals, Inc. (Scottdale, Pa.). […] Rats in Group 5 were administered a single 2-h IV infusion of [^14C]brincidofovir at a target dose of 2 mg/kg. […] Three dosing formulations (one for high dose IV, one for low dose IV, and one for PO dose) were prepared at QPS on the day of dosing. The IV formulation for Groups 1, 2, 3, and 4 contained a vehicle of 10 mM sodium phosphate buffer in 5% dextrose solution at pH 8.0(±0.1).
Each animal, at their respective termination time points, was euthanized for QWBA analysis immediately after blood collection. One rat per time point per Group was euthanized as listed below.
The blood samples were maintained on wet ice (approximately 4° C.) and then centrifuged to obtain plasma within 1 h of the blood collection time. Centrifuge settings were recorded in the study notebook. Duplicate aliquots of plasma (0.050 mL) were analyzed for radioactivity using direct counting by LSC, and residual plasma was stored at approximately −70° C. and was saved for possible future analysis under a separate study protocol. Residual red blood cells were discarded as radioactive waste.
The pinna, distal limbs, hair, and tail were removed from each frozen carcass and each frozen carcass was embedded in an aqueous suspension of approximately 2% (w/v) carboxymethylcellulose and frozen into a block. The blocks were stored at approximately −20° C. prior to sectioning. Each blocked carcass was mounted on the object stage of a cryomicrotome (Leica CM3600 Cryomacrocut, Nussloch, Germany and Vibratome 9800, St. Louis, Mo.) maintained at approximately −20° C. and internal standards (3), which were plasma fortified with [^14C]-glucose at one concentration (approximately 0.05 μCi/mL), were placed into the frozen blocks, prior to sectioning, and were used for section thickness quality control. A number of whole-body sections (approximately 40 μm thick) were taken in the sagittal plane at various levels of interest using a whole-body cryomicrotome set at −20° C. Sagittal sections (20-50 μm thick) of frozen carcasses were exposed to phosphor imaging plates. Regions of images in tissues were converted to concentrations using standards. All of the major tissues, organs, and biological fluids were represented.
Tissue concentration data was determined for the following tissues and/or contents: adipose (brown and white), adrenal gland, bile (in duct), blood (cardiac), bone, bone marrow, brain (cerebrum, cerebellum, medulla), cecum (and contents), large intestine (and contents), epididymis, esophagus, eye (uvea and lens), Harderian gland, heart, kidney (cortex and medulla), liver, lung, lymph node, pancreas, pituitary gland, prostate gland, salivary gland, seminal vesicles, skeletal muscle, skin (pigmented and non-pigmented), small intestine (and contents), stomach (gastric mucosa and contents), spleen, spinal cord, testis, thymus, thyroid, and urinary bladder (and contents).
The imaging plate and sections were placed in light-tight exposure cassettes, in a copper-lined lead safe, for a 4-day exposure at room temperature. […] Quantification was performed by image densitometry using MCD image analysis software (v. 7.0, Interfocus Imaging Ltd) and a standard curve constructed from the integrated response [i.e., Molecular Dynamics Counts per square millimeter (MDC/mm^2)] and the nominal concentrations of the ^14C-calibration standards. The concentrations of radioactivity were expressed as the μg equivalents of [^14C]brincidofovir per gram sample (μg equiv/g). A lower limit of quantification (LLOQ) was applied to the data (See section 6.7.4).
Tissue concentrations that fell below the LLOQ were identified as being below the quantification limit (BQL). Tissue areas that were not visualized on autoradiographic images were identified as no sample (NS) and reported as BQL.

Q: What does the source list for CCCCCCCCCCCCCCCCOCCCOP(=O)(O)CO[C@H](CO)Cn1ccc(N)nc1=O [[^14C] brincidofovir]?
A: Cmax Ratio (PO/IV) (Liver): 0.16; AUCall (Liver, 2 h IV infusion 15 mg/kg, Group 4): 2149.7645 μg equiv · h/g; Tissue Concentration (168 h) (Liver, 2 h IV infusion 15 mg/kg, Group 4, LLOQ 0.036): 0.451 μg equiv/g; Tissue Concentration (168 h) (Liver, PO 15 mg/kg, Group 7, LLOQ 0.034): 0.393 μg equiv/g; AUCall (Liver, PO 15 mg/kg, Group 7): 1426.6340 μg equiv · h/g; AUCall Ratio (PO/IV) (Lung): 0.29; Cmax Ratio (PO/IV) (Lung): 0.16; AUCall (Lung, 2 h IV infusion 15 mg/kg, Group 4): 180.1960 μg equiv · h/g; Tissue Concentration (168 h) (Lung, 2 h IV infusion 15 mg/kg, Group 4, LLOQ 0.036): 0.178 μg equiv/g; Tissue Concentration (168 h) (Lung, PO 15 mg/kg, Group 7, LLOQ 0.034): 0.065 μg equiv/g; AUCall (Lung, PO 15 mg/kg, Group 7): 53.1145 μg equiv · h/g; AUCall Ratio (PO/IV) (Lymph Node): 0.41; Cmax Ratio (PO/IV) (Lymph Node): 0.11; AUCall (Lymph Node, 2 h IV infusion 15 mg/kg, Group 4): 208.8530 μg equiv · h/g; Tissue Concentration (168 h) (Lymph Node, 2 h IV infusion 15 mg/kg, Group 4, LLOQ 0.036): 0.247 μg equiv/g; Tissue Concentration (168 h) (Lymph Node, PO 15 mg/kg, Group 7, LLOQ 0.034): 0.129 μg equiv/g; AUCall (Lymph Node, PO 15 mg/kg, Group 7): 85.04 μg equiv · h/g; AUCall Ratio (PO/IV) (Pancreas): 0.29; Cmax Ratio (PO/IV) (Pancreas): 0.13; AUCall (Pancreas, 2 h IV infusion 15 mg/kg, Group 4): 36.2010 μg equiv · h/g; Tissue Concentration (168 h) (Pancreas, 2 h IV infusion 15 mg/kg, Group 4, LLOQ 0.036): BQL; Tissue Concentration (168 h) (Pancreas, PO 15 mg/kg, Group 7, LLOQ 0.034): BQL; AUCall (Pancreas, PO 15 mg/kg, Group 7): 10.3720 μg equiv · h/g; AUCall Ratio (PO/IV) (Pituitary Gland): 0.20; Cmax Ratio (PO/IV) (Pituitary Gland): 0.05; AUCall (Pituitary Gland, 2 h IV infusion 15 mg/kg, Group 4): 155.1085 μg equiv · h/g; Tissue Concentration (168 h) (Pituitary Gland, 2 h IV infusion 15 mg/kg, Group 4, LLOQ 0.036): 0.189 μg equiv/g; Tissue Concentration (168 h) (Pituitary Gland, PO 15 mg/kg, Group 7, LLOQ 0.034): 0.042 μg equiv/g; AUCall (Pituitary Gland, PO 15 mg/kg, Group 7): 30.5073 μg equiv · h/g; AUCall Ratio (PO/IV) (Prostate Gland): 0.62; Cmax Ratio (PO/IV) (Prostate Gland): 0.30; AUCall (Prostate Gland, 2 h IV infusion 15 mg/kg, Group 4): 24.3415 μg equiv · h/g; Tissue Concentration (168 h) (Prostate Gland, 2 h IV infusion 15 mg/kg, Group 4, LLOQ 0.036): BQL; Tissue Concentration (168 h) (Prostate Gland, PO 15 mg/kg, Group 7, LLOQ 0.034): BQL; AUCall (Prostate Gland, PO 15 mg/kg, Group 7): 7.6578 μg equiv · h/g; AUCall Ratio (PO/IV) (Salivary Gland): 0.15; Cmax Ratio (PO/IV) (Salivary Gland): 0.09; AUCall (Salivary Gland, 2 h IV infusion 15 mg/kg, Group 4): 60.9180 μg equiv · h/g; Tissue Concentration (168 h) (Salivary Gland, 2 h IV infusion 15 mg/kg, Group 4, LLOQ 0.036): 0.056 μg equiv/g; Tissue Concentration (168 h) (Salivary Gland, PO 15 mg/kg, Group 7, LLOQ 0.034): BQL; AUCall (Salivary Gland, PO 15 mg/kg, Group 7): 9.1933 μg equiv · h/g; AUCall Ratio (PO/IV) (Seminal Vesicles): 0.17; Cmax Ratio (PO/IV) (Seminal Vesicles): 0.45; AUCall (Seminal Vesicles, 2 h IV infusion 15 mg/kg, Group 4): 297.3580 μg equiv · h/g; Tissue Concentration (168 h) (Seminal Vesicles, 2 h IV infusion 15 mg/kg, Group 4, LLOQ 0.036): 0.361 μg equiv/g; Tissue Concentration (168 h) (Seminal Vesicles, PO 15 mg/kg, Group 7, LLOQ 0.034): 0.063 μg equiv/g; AUCall (Seminal Vesicles, PO 15 mg/kg, Group 7): 50.2500 μg equiv · h/g; AUCall Ratio (PO/IV) (Skeletal Muscle): 0.13; Cmax Ratio (PO/IV) (Skeletal Muscle): 0.16; AUCall (Skeletal Muscle, 2 h IV infusion 15 mg/kg, Group 4): 10.3485 μg equiv · h/g; Tissue Concentration (168 h) (Skeletal Muscle, 2 h IV infusion 15 mg/kg, Group 4, LLOQ 0.036): BQL; Tissue Concentration (168 h) (Skeletal Muscle, PO 15 mg/kg, Group 7, LLOQ 0.034): BQL; AUCall (Skeletal Muscle, PO 15 mg/kg, Group 7): 1.3265 μg equiv · h/g; AUCall Ratio (PO/IV) (Skin (non-pigmented)): 0.10; Cmax Ratio (PO/IV) (Skin (non-pigmented)): 0.17; AUCall (Skin (non-pigmented), 2 h IV infusion 15 mg/kg, Group 4): 146.2340 μg equiv · h/g
